Measurements from US20140137294A1, “GLUCOSINOLATE TRANSPORTER PROTEIN AND USES THEREOF” (UNIVERSITY OF COPENHAGEN, priority 2010, published 2014).

Key:
AtGTR2 [1] = target: T1, AtGTR2 (Arabidopsis thaliana, UniProt Q9LV10); assay: Glucosinolate uptake by AtGTR2 expressing oocytes, LC-MS analysis of oocyte extracts; format: cell-based; conditions: data not shown
T1 construct: expressed in transfected cells; host or cells: Xenopus oocytes injected with in vitro transcribed cRNA (vector pNB1u)
T1 sequence (Q9LV10 1-616): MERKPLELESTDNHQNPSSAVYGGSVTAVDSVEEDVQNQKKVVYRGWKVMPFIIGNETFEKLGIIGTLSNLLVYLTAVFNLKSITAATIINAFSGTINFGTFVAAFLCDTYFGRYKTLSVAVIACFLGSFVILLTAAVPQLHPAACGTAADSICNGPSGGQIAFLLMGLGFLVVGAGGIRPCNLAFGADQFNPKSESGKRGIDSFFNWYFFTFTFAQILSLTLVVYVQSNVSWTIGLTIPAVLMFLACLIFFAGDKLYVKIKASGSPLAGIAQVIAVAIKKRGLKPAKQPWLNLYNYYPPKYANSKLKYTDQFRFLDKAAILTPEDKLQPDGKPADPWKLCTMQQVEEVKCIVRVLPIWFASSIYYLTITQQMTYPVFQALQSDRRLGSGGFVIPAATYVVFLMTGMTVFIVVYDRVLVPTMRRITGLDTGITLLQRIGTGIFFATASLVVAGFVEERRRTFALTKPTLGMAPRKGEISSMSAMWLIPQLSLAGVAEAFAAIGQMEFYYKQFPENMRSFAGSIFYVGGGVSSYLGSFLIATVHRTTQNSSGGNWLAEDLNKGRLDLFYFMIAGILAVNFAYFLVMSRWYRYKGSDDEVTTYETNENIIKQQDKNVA

AtGTR2 [2] = target: T1, AtGTR2; assay: Substrate-induced currents in voltage-clamped Xenopus oocytes expressing AtGTR2; format: cell-based
Experimental: FIG. 3: Biochemical analysis of AtGTR1 and 2 mediated GSL transport in Xenopus oocytes. A and B, pH dependence of AtGTR-mediated GSL transport. A, AtGTR2 mediated 4-MTB uptake measured by LC-MS analysis of oocyte extracts, n=3 oocytes. B, AtGTR1 currents induced by 1 mM 4-MTB were measured at different membrane potentials at pH 5 ([…]), pH 6 (♦), and pH 7 (▴). Currents were normalized to the current induced at pH 5 at −60 mV, error bars are SD, n=4 oocytes. C and D, kinetic analysis of AtGTR-mediated glucosinolate transport. Normalized glucosinolate dependent currents at a membrane potential of −60 mV are plotted against 4-MTB concentrations, line indicates a fit of the Michaelis-Menten equation to the data; error bars are SD. For AtGTR1 (n=6 oocytes); For AtGTR2 (n=5 oocytes). Each oocyte-dataset were normalized to current elicited at 100 μM 4-MTB. E and F, substrate specificity of AtGTRs. E, AtGTR1 and AtGTR2 uptake of 0.04 mM C-14 labeled pOHBG at pH 5 in the presence of 2 mM 4-MTB, 2 mM NO3^−, 2 mM glucose+2 mM SO4^−−, or a solution of 2 mM Ala-His+2 mM Asp-Ala+2 mM Gly-Leu+2 mM Ala-Phe+2 mM Gly-Glu+2 mM Gly-Gly-Gly, error bars are SD, n=8 oocytes. F, AtGTR1 currents induced by endogenous and exogenous glucosinolates, representative positive, negative and neutral dipeptides and two tripeptides Currents were normalized to the current induced by 100 μM 4-MTB at pH 5 clamped at −60 mV, error bars are SD, n=4 oocytes.
When current recordings were performed on oocytes expressing, respectively, AtGTR1 and AtGTR2 exposed to 100 μM 4-MTB at pH 5 and voltage clamped at −50 mV elicited inward currents in the 30 nA range. This indicates a net influx of positive ions through the AtGTRs upon exposure to GSLs. GSL-induced inward currents were voltage dependent increasing with hyperpolarizing membrane potential within the range of +30 to −120 mV (FIGS. 3B and F). […] This observation was also noticeable in substrate dependent transport rates measured by direct LC-MS detection of GSL uptake.

Structure (SMILES): CSCCCC/C(=N/OS(=O)(=O)O)S[C@@H]1O[C@H](CO)[C@@H](O)[C@H](O)[C@H]1O [4-MTB, 4-methylthiobutyl glucosinolate]
- uptake by AtGTR2 measured by LC-MS analysis of oocyte extracts (AtGTR2 [1]): took up
- inward current (AtGTR2 [2]; 100 μM substrate, pH 5, voltage clamped at −50 mV, AtGTR2): ~30 nA
- substrate dependent transport rate at 500 μM, lower than at 250 μM and 1 mM (AtGTR2 [2]; AtGTR2, 500 μM 4-MTB): 25%
- Km (AtGTR2 [2]; pH 5, clamped at −60 mV, Michaelis-Menten, AtGTR2): 18.7 ± 4.2 µM
